Measurements reported in patent publication EP0529622A2, “Cloning and characterization of a cardiac adenylyl cyclase” (AMERICAN CYANAMID COMPANY, priority 1991, dated 1993).

Legend:
type V adenylyl cyclase [1] = target: T1, type V adenylyl cyclase (Canis lupus familiaris, UniProt P30803); test: P-site inhibition of adenylyl cyclase activity by adenosine and its analogues, transfected CMT membranes; format: biochemical, canine; details: 0-100 µM; membranes preincubated with 5 mM Mn²⁺ and 100 µM forskolin for 10 minutes
T1 construct: expressed in transfected cells; host or cells: CMT cells, crude membrane preparation
Experimental: Figure 7 depicts the effect of adenosine and its analogues on type V adenylyl cyclase activity. Membrane (transfected with pcDNA112-72 or control) are preincubated with 5 mM Mn²⁺ and 100 µM forskolin for 10 minutes prior to the assay. […] Each point in the average of triplicate determinations.
Another feature of adenylyl cyclase is its inhibition through an allosteric purine binding or P-site (6). […] This is more apparent when the enzyme is first activated by the addition of Mn²⁺, forskolin. The order of potency was as follows: 2'-deoxy-3'-AMD>3'-AMP>2'-deoxyadenosine>adenosine (Figure 7).

type V adenylyl cyclase [2] = target: T1, type V adenylyl cyclase; test: Calcium/calmodulin sensitivity of adenylyl cyclase activity, transfected CMT cell membranes; format: biochemical, canine; details: 30 µg crude CMT cell membrane; 0-1 mM calcium (CaCl₂); membranes washed with EGTA
Experimental: Figure 6 depicts the effect of calcium on type V adenylyl cyclase activity. Adenylyl cyclase activity (CMT cells transfected with pcDNA113-72 or cardiac sarcolemma) is measured in the presence of increasig concentrations of calcium (0-1 mM). Cardiac sarcolemma is prepared as described (26). Both membrane preparations are first washed with EGTA prior to assay (27). Similar results are obtained in three independent experiments. The efficiency of transfection is confirmed by at least a 4-fold increase in both basal and forskolin-stimulated adenylyl cyclase activities over control.
The calcium/calmodulin sensitivity of this protein is also assessed. […] Thirty µg of the crude CMT cell membrane preparation are incubated in the presence of increasing concentrations of CaCl₂. […] The adenylyl cyclase activity also is assessed in canine cardiac sarcolemma.

untransfected CMT cells = test: Adenylyl cyclase activity assay, membrane from untransfected CMT cells (control); format: biochemical, monkey; details: Control (untransfected CMT cell membrane), ± standard error
Experimental: The adenylyl cyclase activity of a cell transfected with the expression vector pcDNA1 carrying cardiac adenylyl cyclase cDNA is assayed as follows. The transfected CMT cells are washed twice with PBS and scraped in three ml of cold buffer containing 50 mM Tris (pH8.0), 1 mM EDTA, 10 µM PMSF (phenylmethylsulfonylfluoride), 100 U leupeptin, and 50 U egg white trypsin inhibitor (ETI) on ice. The membrane is homogenated in Polytron™ (setting 6 for 10 seconds) and is centrifuged at 800 x g for 10 minutes at 4 °C. The supernatant is further centrifuged at 100 x g for 40 minutes at 4 °C. The resultant pellet is resuspended in 50 mM Tris (pH 8.0), 1 mM EDTA, 1 µM PMSF, 50 U leupeptin, and 50 U ETI, to a concentration of 5 µg/µl. This crude membrane solution is used for the adenylyl cyclase asssay.
The adenylyl cyclase assay is performed by the method of Salomon (21). Briefly, the crude membranes from CMT cells are resuspended in a solution containing 1 mM creatine phosphate, 8 µg/ml creatine phophokinase, 4 mM HEPES (pH 8.0), 2 mM MgCl₂, 0.1 mM c-AMP, 0.1 mM ATP, and ³²P-ATP (0.2-5 µCi/assay tube). […] Cyclic-AMP is separated from ATP by passing through Dowex and alumina columns, and the radioactivity is counted by scintillation counter. The protein concentration of the membranes used are measured by Bradford's method (22), with bovine serum albumin as a standard. […]

cardiac adenylyl cyclase = target: T2, cardiac adenylyl cyclase (Canis lupus familiaris, UniProt P30803); test: Adenylyl cyclase activity assay (method of Salomon), crude membranes of CMT cells transfected with pcDNA113-72; format: biochemical, canine; details: for fold more stimulation than the control: transfected vs untransfected control, 100 µM forskolin
T2 construct: The expression vector containing the full length cDNA is designated pcDNA113-72; expressed in transfected cells; host or cells: monkey kidney CMT cells (COS derivative), transient transfection with pcDNA113-72, crude membrane preparation
Text: Biochemical characterization of the protein product encoded by this cDNA is obtained using a CMT cell-expression system. The CMT cell is a derivative of the COS cell in which expression of the T-antigen is under the control of a metallothionein promoter. Thus the accumulation of T-antigen in the cell is further enhanced by the addition of heavy metal ion in the medium. The adenylyl cyclase cDNA construct (113-72) is cloned into pcDNA 1, a CMV promoter-driven expression vector with an SV40 enhancer-origin of replication element. A crude membrane preparation is prepared from the transfected CMT cells and a variety of agents known to stimulate adenylyl cyclase are examined (Table I). There is a dose-dependent relationship between the amount of plasmid transfected and the resultant adenylyl cyclase activity, both basal and forskolin-stimulated (0-30 µg per transfection). When the plasmid without insert is transfected, the resultant adenylyl cyclase activity is slightly (∼15%) lower than that of mock-transfected cells. All activities are enhanced several-fold in the transfected cells, as compared to controls, with the forskolin-stimulated activity showing the greatest increase in activity (>6-fold increase over control).
In an example of such expression, twenty µg of the purified plasmid pcDNA 113-72 are transfected into the monkey kidney CMT cells using a modified method of Golub et al. (17). Briefly, the cells are grown to 80% confluence in Dulbecco's modification of Eagle's Medium, 10% fetal calf serum, 2 mM glutamine, 4.5 mg/ml glucose, 10 µg/ml streptomycin sulfate and 60 µg/ml penicillin K. After washing with PBS twice, 0.5 ml of trypsin solution is added. The cells are incubated for 10 minutes, and 20 µg of purified plasmid resuspended in 4 ml of DMEM containing 400 µg/ml DEAE dextran and 0.1 mM chloroquine is added. The cells are incubated for four hours followed by 10% DMSO shock for two minutes. After washing with PBS twice, the induction media, which contains 10% fetal calf serum (FCS), 2 mM glutamine, […], 2 mM penicillin and streptomycin, and 1 µM CdCl₂, 0.1 µM ZnCl₂ in DMEM, is added. The plate is incubated at 37 °C for 72 hours before harvesting.
The biochemical property of this cardiac adenylyl cyclase is examined in a transient expression system using CMT cells (a derivative of COS cells). CMT cells contain T-antigen driven by a methalothionein promoter in the genome. Thus by induction with heavy metal ion in the medium, CMT cells could produce more T-antigen than COS cells. A 4.3 kb fragment of the adenylyl cyclase cDNA (#113-72) containing the whole coding sequence is inserted into the pcDNA1 plasmid described above (Invitrogen).
The adenylyl cyclase activity of a cell transfected with the expression vector pcDNA1 carrying cardiac adenylyl cyclase cDNA is assayed as follows. The transfected CMT cells are washed twice with PBS and scraped in three ml of cold buffer containing 50 mM Tris (pH8.0), 1 mM EDTA, 10 µM PMSF (phenylmethylsulfonylfluoride), 100 U leupeptin, and 50 U egg white trypsin inhibitor (ETI) on ice. The membrane is homogenated in Polytron™ (setting 6 for 10 seconds) and is centrifuged at 800 x g for 10 minutes at 4 °C. The supernatant is further centrifuged at […] for 40 minutes at 4 °C. The resultant pellet is resuspended in 50 mM Tris (pH 8.0), 1 mM EDTA, 1 µM PMSF, 50 U leupeptin, and 50 U ETI, to a concentration of 5 µg/µl. This crude membrane solution is used for the adenylyl cyclase asssay. […]

[3] = 10 mM sodium fluoride, 100 µM GTPγS

T2 sequence (P30803 82-1265 limits assumed): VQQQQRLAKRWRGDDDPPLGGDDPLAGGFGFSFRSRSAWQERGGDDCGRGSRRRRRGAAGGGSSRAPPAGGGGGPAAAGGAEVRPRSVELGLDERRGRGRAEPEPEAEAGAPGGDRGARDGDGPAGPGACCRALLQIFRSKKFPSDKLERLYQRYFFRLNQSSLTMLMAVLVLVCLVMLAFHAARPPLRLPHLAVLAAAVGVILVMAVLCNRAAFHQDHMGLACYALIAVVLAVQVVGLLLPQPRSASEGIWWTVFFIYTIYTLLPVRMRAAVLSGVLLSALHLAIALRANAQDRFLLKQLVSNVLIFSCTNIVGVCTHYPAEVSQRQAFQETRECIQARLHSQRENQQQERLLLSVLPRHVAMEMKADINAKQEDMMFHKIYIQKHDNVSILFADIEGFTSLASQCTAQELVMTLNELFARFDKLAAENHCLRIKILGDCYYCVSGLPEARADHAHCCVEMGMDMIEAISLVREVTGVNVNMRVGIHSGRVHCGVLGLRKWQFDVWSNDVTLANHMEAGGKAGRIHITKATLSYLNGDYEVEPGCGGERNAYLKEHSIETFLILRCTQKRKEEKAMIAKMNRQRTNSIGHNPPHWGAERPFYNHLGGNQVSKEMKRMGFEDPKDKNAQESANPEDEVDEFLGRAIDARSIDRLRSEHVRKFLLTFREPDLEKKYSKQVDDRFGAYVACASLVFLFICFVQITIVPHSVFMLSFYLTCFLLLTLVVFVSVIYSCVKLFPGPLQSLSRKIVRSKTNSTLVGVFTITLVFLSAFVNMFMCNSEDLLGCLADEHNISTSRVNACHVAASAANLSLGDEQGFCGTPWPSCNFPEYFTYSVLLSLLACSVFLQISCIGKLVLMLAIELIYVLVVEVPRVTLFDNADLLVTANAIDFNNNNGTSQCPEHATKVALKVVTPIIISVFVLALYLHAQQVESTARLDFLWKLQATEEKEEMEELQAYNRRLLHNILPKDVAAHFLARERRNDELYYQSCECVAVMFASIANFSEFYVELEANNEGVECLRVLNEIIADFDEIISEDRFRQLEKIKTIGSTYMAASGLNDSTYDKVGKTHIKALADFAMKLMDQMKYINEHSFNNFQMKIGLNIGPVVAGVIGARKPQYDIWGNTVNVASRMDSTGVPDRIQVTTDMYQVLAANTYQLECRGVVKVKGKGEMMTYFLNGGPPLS
T1 sequence (P30803 82-1265 limits assumed): as above

Compound: Nc1ncnc2c1ncn2[C@H]1C[C@H](OP(=O)(O)O)[C@@H](CO)O1 [2'-deoxy-3'-AMD]
- order of potency of inhibition of adenylyl cyclase activity (type V adenylyl cyclase [1]): 2'-deoxy-3'-AMD>3'-AMP>2'-deoxyadenosine>adenosine

Compound: Nc1ncnc2c1ncn2[C@@H]1O[C@H](CO)[C@@H](O)[C@H]1O [adenosine]
- order of potency of inhibition of adenylyl cyclase activity (type V adenylyl cyclase [1]): 2'-deoxy-3'-AMD>3'-AMP>2'-deoxyadenosine>adenosine

Compound: CaCl₂ [calcium]
- effect of calcium on adenylyl cyclase activity (type V adenylyl cyclase [2]): inhibited in a concentration-dependent manner

Compound: [F-].[Na+] [NaF, sodium fluoride]
- adenylyl cyclase activity, NaF (untransfected CMT cells; 10 mM sodium fluoride): 15±3.1
- adenylyl cyclase activity, NaF (cardiac adenylyl cyclase; Transfected CMT cell membranes, 10 mM sodium fluoride, ± standard error): 41±4.7
- fold more stimulation than the control (cardiac adenylyl cyclase; [3]): 2.7 fold

Compound: Nc1nc2c(ncn2[C@@H]2O[C@H](COP(=O)(O)OP(=O)(O)OP(O)(O)=S)[C@@H](O)[C@H]2O)c(=O)[nH]1 [GTPγS]
- adenylyl cyclase activity, GTPγS (untransfected CMT cells; 100 µM GTPγS): 30± 4.5
- adenylyl cyclase activity, GTPγS (cardiac adenylyl cyclase; Transfected CMT cell membranes, 100 µM GTPγS, ± standard error): 84±12.5
- fold more stimulation than the control (cardiac adenylyl cyclase; [3]): 2.8 fold

Compound: Nc1ncnc2c1ncn2[C@@H]1O[C@H](CO)[C@@H](OP(=O)(O)O)[C@H]1O [3'-AMP]
- order of potency of inhibition of adenylyl cyclase activity (type V adenylyl cyclase [1]): 2'-deoxy-3'-AMD>3'-AMP>2'-deoxyadenosine>adenosine

Compound: Nc1ncnc2c1ncn2[C@H]1C[C@H](O)[C@@H](CO)O1 [2'-deoxyadenosine]
- order of potency of inhibition of adenylyl cyclase activity (type V adenylyl cyclase [1]): 2'-deoxy-3'-AMD>3'-AMP>2'-deoxyadenosine>adenosine

Compound: manganese
- adenylyl cyclase activity stimulated over the control (cardiac adenylyl cyclase; in the presence of 5 mM manganese): more than 10 fold
